Values after ≈ are worked out from the molar mass of the structure shown. Structures can show the parent of a compound that is named as a salt. Where two headings read alike, the source gives them in different places.
What was measured:
[1] = tested on: Saccharomyces cerevisiae ATCC 9763; experiment: agar well diffusion assay, S. cerevisiae; format: cell-based; settings: read-out: width of the clear zone of inhibition, S. cerevisiae
Protocol: (§1) Bacterial test organisms were cultured in Eugonager and Eugonbroth (BBL), and fungi and yeasts were cultured in Mycophil (BBL) agar and broth. Antimicrobial activity was recorded as the width (in millimeters) of the clear zone of inhibition surrounding the agar well.
(§2) Qualitative evaluation of antimicrobial activity of the inventive extracts, fractions, and pure compounds was accomplished using an agar well diffusion assay. As set out hereinbefore, the inventive compositions were tested for activity against the following microorganisms: Staphylococcus aureus ATCC 6538; Escherichia coli ATCC 10536; Mycobacterium smegmatis ATCC 607; Pseudomonas aeruginosa ATCC 15442; Candida albicans ATCC 10321; Saccharomyces cerevisiae ATCC 9763; and Asperigillus niger ATCC 16888. In addition, the compounds of the preferred embodiments were also tested against Bacillus subtilis ATCC 6633. Bacterial test organisms were cultured in Eugonagar and Eugonbroth (BBL), and fungi and yeasts were cultured in Mycophil (BBL) agar and broth.
(§3) Plates for assay were prepared by uniformly seeding sterily, partially cooled, molten agar with dilutions of test organisms grown in broth or suspensions of conidia produced on agar slants (A. niger). The seeded agar medium was dispensed into 100 × 15 mm sterile petri dishes (15 ml per dish). Cylindrical plugs were removed from the solidified agar plates, using a sterile cork borer, to produce wells having a diameter of approximately 11 mm. One hundred microliters of a solution or suspension of an extract, fraction, or pure compound was added to each well. The extracts and fractions were tested as solutions or suspensions in a concentration of 20 mg/ml; pure compounds were tested at 1 mg/ml. When solvents other than water were required to dissolve extracts or compounds, solvent blanks were run against each test organism.
(§4) Plates prepared as described above were incubated as follows: Bacteria were grown at 37° C. for 24 hours, with the exception of M. smegmatis, which grows more slowly and requires incubation at 37° C. for 48 hours, before reading. Fungi or yeast were incubated at 25° C. for 24 hours, before growth was evident.
(§5) Antimicrobial activity was recorded as the width (in mm) of the clear zone of inhibition surrounding the agar well.

Candida albicans = experiment: agar well diffusion assay, C. albicans; format: cell-based; settings: read-out: width of the clear zone of inhibition, C. Albicans
Protocol: as §1, §2, §3, §4, §5

M. smegmatis = experiment: two-fold serial dilution assay (MIC), M. smegmatis; format: cell-based, Mycobacterium smegmatis; settings: Mycolicibacterium smegmatis, read-out: Minimum Inhibitory Concentration, M. Smegmatis
Description: (§6) Quantitive assay of antimicrobial activity of the inventive compositions against selected test organisms was made using a two-fold serial dilution in Eugonbroth or Mycophil broth. The concentration of pure alkaloids in the initial dilution tube was 50 mcg/ml. Streptomycin sulfate (Nutrional Biochemical) and amphotericin B (Calbiochem "A" grade) at the same concentrations as above were used as standard antibiotics for comparison with the activities of the alkaloids against bacteria and yeast species, respectively. Cultures used in the serial dilution assay included S. aureus, B. subtilis, M. smegmatis, C. albicans, and S. cerevisiae. Readings were taken after incubation times of 24 hours for all organisms except M. smegmatis, which was read at 72 hours. The concentration mcg/ml of the tube of highest dilution which was free from growth was recorded as the minimal inhibitory concentration in Table 3.

[2] = tested on: Mycobacterium smegmatis ATCC 607; experiment: agar well diffusion assay, M. smegmatis; format: cell-based; settings: Mycolicibacterium smegmatis, read-out: width of the clear zone of inhibition, M. smegmatis
Protocol: as §1, §2, §3, §4, §5

[3] = tested on: S. aureus, B. subtilis, M. smegmatis, C. albicans, and S. cerevisiae; experiment: two-fold serial dilution assay, activity overall against bacteria and yeasts; format: cell-based; settings: from the data in Table 3
Description: as §6

S. cerevisiae = experiment: two-fold serial dilution assay (MIC), S. cerevisiae; format: cell-based; settings: Saccharomyces cerevisiae, read-out: Minimum Inhibitory Concentration, S. cerevisiae
Description: as §6

[4] = tested on: Bacillus subtilis ATCC 6633; experiment: agar well diffusion assay, B. subtilis; format: cell-based; settings: read-out: width of the clear zone of inhibition, B. subtilis
Protocol: as §1, §2, §3, §4, §5

S. aureus = experiment: two-fold serial dilution assay (MIC), S. aureus; format: cell-based; settings: Staphylococcus aureus; 24 hours; read-out: Minimum Inhibitory Concentration, S. aureus
Description: as §6

test organisms = experiment: qualitative antimicrobial activity of extracts, fractions and compounds; format: cell-based; settings: text statement on extracts, fractions, compounds
Protocol: Qualitative evaluation of antimicrobial activity of the inventive extracts, fractions, and pure compounds was accomplished using an agar well diffusion assay. As set out hereinbefore, the inventive compositions were tested for activity against the following microorganisms: Staphylococcus aureus ATCC 6538; Escherichia coli ATCC 10536; Mycobacterium smegmatis ATCC 607; Pseudomonas aeruginosa ATCC 15442; Candida albicans ATCC 10321; Saccharomyces cerevisiae ATCC 9763; and Asperigillus niger ATCC 16888. […] Bacterial test organisms were cultured in Eugonagar and Eugonbroth (BBL), and fungi and yeasts were cultured in Mycophil (BBL) agar and broth.

B. subtilis = experiment: two-fold serial dilution assay (MIC), B. subtilis; format: cell-based; settings: Bacillus subtilis, read-out: Minimum Inhibitory Concentration, R. Subtilis
Description: as §6

[5] = tested on: Asperigillus niger ATCC 16888; experiment: agar well diffusion assay, A. niger; format: cell-based; settings: Aspergillus niger, read-out: width of the clear zone of inhibition, A. niger
Protocol: as §1
as §2, with “broth. […]” for “broth.”
Plates prepared as described above were incubated as follows: Bacteria were grown at 37° C. for 24 hours, with the exception of M. smegmatis, which grows more slowly and requires incubation at 37° C. for 48 hours, before reading. […]
as §5

[6] = tested on: Staphylococcus aureus ATCC 6538; experiment: agar well diffusion assay, S. aureus; format: cell-based; settings: read-out: width of the clear zone of inhibition, S. aureus
Protocol: as §1, §2, §3, §4, §5

C. albicans = experiment: two-fold serial dilution assay (MIC), C. albicans; format: cell-based, Candida albicans; settings: for MIC: Candida albicans, read-out: Minimum Inhibitory Concentration, C. Albicans
Description: as §6

[7] = ATCC9763, 25° C., 24 hours, pure compounds 1 mg/ml, 100 microliters per well
[8] = 25° C., 24 hours, extracts and fractions 20 mg/ml, pure compounds 1 mg/ml, 100 microliters per well
[9] = ATCC607, 37° C., 48 hours, extracts and fractions 20 mg/ml, pure compounds 1 mg/ml, 100 microliters per well
[10] = ATCC6633, 37° C., 24 hours, pure compounds 1 mg/ml, 100 microliters per well
[11] = ATCC6538, 37° C., 24 hours, extracts and fractions 20 mg/ml, pure compounds 1 mg/ml, 100 microliters per well

Row | Compound | zone of inhibition at 1000 µg/mL ([1]; ATCC9763, 24 h) | zone of inhibition at 1000 µg/mL (Candida albicans; 24 h) | MIC (M. smegmatis; 72 h) | zone of inhibition at 1000 µg/mL ([2]; ATCC607, 48 h) | in vitro activity compared with standard antibiotics or other alkaloids [3] | MIC (S. cerevisiae; 24 h) | zone of inhibition at 1000 µg/mL ([4]; ATCC6633, 24 h) | MIC (S. aureus) | antimicrobial activity (in words) (test organisms) | MIC (B. subtilis; 24 h) | zone of inhibition at 1000 µg/mL ([6]; ATCC6538, 24 h) | MIC (C. albicans; 24 h) | zone of inhibition at 1000 µg/mL [1, 7] | zone of inhibition at 1000 µg/mL (Candida albicans; [8]) | MIC (M. smegmatis; 72 hours) | zone of inhibition at 1000 µg/mL [2, 9] | MIC (S. cerevisiae; 24 hours) | zone of inhibition at 1000 µg/mL [4, 10] | MIC (B. subtilis; 24 hours) | zone of inhibition at 1000 µg/mL [6, 11] | further results
1 | O=C1c2ccccc2-c2c3c(cc4ccnc1c24)OCO3 [liriodenine] | 5 mm | 3 mm | 1.56 µg/mL (≈ 5.67 µM) | 11 mm | in vitro activity comparable to that of streptomycin sulfate and amphotericin B | 6.2 µg/mL (≈ 22.5 µM) | 8 mm | 3.1 µg/mL (≈ 11.3 µM) | exhibited antimicrobial activity | 0.39 µg/mL (≈ 1.42 µM) | 5 mm | 6.2 µg/mL (≈ 22.5 µM) |  |  |  |  |  |  |  |  | antimicrobial activity (in words) (test organisms; listed as Liriodenine): contained all of the antimicrobial activity in this fraction; zone of inhibition at 1000 µg/mL ([5]; ATCC16888, 24 h): 11 mm
2 | COc1cc2c(cc1OC)-c1c(OC)c(OC)cc3cc[n+](C)c(c13)C2=O [oxoglaucine methiodide] |  |  |  |  |  |  |  | 25 µg/mL |  |  |  |  | 11 mm | 10 mm | 25 µg/mL | 10 mm | 25 µg/mL | 9 mm | 25 µg/mL | 9 mm | MIC (C. albicans; 24 hours): 1.56 µg/mL; activity against C. albicans (in words) (C. albicans; from the data in Table 3): particularly active against C. albicans
3 | COc1cc2cc3c4c(cc(OC)c(OC)c4c2cc1OC)CCN3C [dehydroglaucine] | 6 mm | 6 mm | 25 µg/mL (≈ 70.7 µM) | 8 mm |  | 50 µg/mL (≈ 141 µM) | 7 mm | 25 µg/mL (≈ 70.7 µM) | exhibited antimicrobial activity | 25 µg/mL (≈ 70.7 µM) | 4 mm | 25 µg/mL (≈ 70.7 µM) |  |  |  |  |  |  |  |  | antimicrobial activity (in words) (test organisms; listed as Dehydroglaucine): exhibit all of the antimicrobial activity in that Fraction
4 | C[C@@H]1[C@H](O)[C@@H](C)/C=C/C=C/C=C/C=C/C=C/C=C/C=C/[C@H](O[C@@H]2O[C@H](C)[C@@H](O)[C@H](N)[C@@H]2O)C[C@@H]2O[C@](O)(C[C@@H](O)C[C@@H](O)[C@H](O)CC[C@@H](O)C[C@@H](O)CC(=O)O[C@H]1C)C[C@H](O)[C@H]2C(=O)O [amphotocericin B, amphotericin B, reference compound] |  |  |  |  |  | 0.78 µg/mL (≈ 0.844 µM) |  |  |  |  |  | 0.78 µg/mL (≈ 0.844 µM) |  |  |  |  |  |  |  |  | 
5 | C[n+]1ccc2cc3c(c4c2c1C(=O)c1ccccc1-4)OCO3 [liriodenine methiodide] |  |  |  |  | in vitro activity comparable to that of streptomycin sulfate and amphotericin B |  |  | 6.2 µg/mL |  |  |  |  | 15 mm | 17 mm | 3.1 µg/mL | 14 mm | 3.1 µg/mL | 6 mm | 3.1 µg/mL | 6 mm | zone of inhibition at 1000 µg/mL ([5]; ATCC16888, 25° C., 24 hours, extracts and fractions 20 mg/ml, pure compounds 1 mg/ml, 100 microliters per well): 4 mm; MIC (C. albicans; 24 hours): 0.78 µg/mL
6 | [H]/N=C(/N)N[C@H]1[C@H](O)[C@@H](O)[C@H](O[C@@H]2O[C@@H](C)[C@](O)(C=O)[C@H]2O[C@@H]2O[C@@H](CO)[C@H](O)[C@@H](O)[C@@H]2NC)[C@@H](N/C(N)=N\[H])[C@@H]1O [streptomycin sulfate, reference compound] |  |  | 0.78 µg/mL |  |  |  |  | 3.1 µg/mL |  | 1.56 µg/mL |  |  |  |  |  |  |  |  |  |  | 

— US4093717A, “Antimicrobial compositions” (University of Mississippi, priority 1975, dated 1978)
